Patent US20080009418A1, “Selective Inhibitors” (Alchemia LTD., priority 2004, published 2008)

Tests used:
Human μ-opioid (MOP) = biological target: T1, Human μ-opioid (MOP) (Homo sapiens, UniProt P35372); assay: Radioligand binding, human μ-opioid (MOP) membranes, FlashPlate, [3H]-Naloxone; conditions: compound at 10 μM
T1 construct: purchased Perkin Elmer Biosignal
Summary of the method: (§1)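 Cloned human receptor membranes were coated onto FlashPlate wells and incubated with radioligand and compound (added from a 0.5 mM DMSO daughter plate) for 1 hour at room temperature in the dark. Scintillation counting gave percent inhibition, with DMSO defining total and reference ligand defining non-specific binding.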

Human melanocortin (MC5) = biological target: T2, Human melanocortin (MC5) (Homo sapiens, UniProt P33032); assay: Radioligand binding, human melanocortin MC5 membranes, FlashPlate, [125I]-NDP-αMSH; conditions: compound at 10 μM
T2 construct: purchased Perkin Elmer Biosignal
Summary of the method: as §1

Human κ-Opioid (KOP) = biological target: T3, Human κ-Opioid (KOP) (Homo sapiens, UniProt P41145); assay: Radioligand binding, human κ-opioid (KOP) membranes, filtration, [3H]-Diprenorphine; conditions: compound at 10 μM
T3 construct: purchased Perkin Elmer Biosignal
Summary of the method: (§2)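 Membranes from cloned human receptors were incubated with compound and radioligand for 1 hour at room temperature. Bound ligand was collected on 0.3% PEI-soaked filters, washed with cold 50 mM Tris-HCl pH 7.4, and counted by scintillation. Percent inhibition was computed against DMSO totals and reference-ligand nonspecific wells.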

Mouse urotensin (mUR2) = biological target: T4, Mouse urotensin (mUR2) (Mus musculus, UniProt Q8VIH9); assay: Radioligand binding, mouse urotensin mUR2 membranes, FlashPlate, [125I]-Urotensin II; conditions: compound at 10 μM
T4 construct: purchased Perkin Elmer Biosignal
T4 sequence (Q8VIH9 1-385): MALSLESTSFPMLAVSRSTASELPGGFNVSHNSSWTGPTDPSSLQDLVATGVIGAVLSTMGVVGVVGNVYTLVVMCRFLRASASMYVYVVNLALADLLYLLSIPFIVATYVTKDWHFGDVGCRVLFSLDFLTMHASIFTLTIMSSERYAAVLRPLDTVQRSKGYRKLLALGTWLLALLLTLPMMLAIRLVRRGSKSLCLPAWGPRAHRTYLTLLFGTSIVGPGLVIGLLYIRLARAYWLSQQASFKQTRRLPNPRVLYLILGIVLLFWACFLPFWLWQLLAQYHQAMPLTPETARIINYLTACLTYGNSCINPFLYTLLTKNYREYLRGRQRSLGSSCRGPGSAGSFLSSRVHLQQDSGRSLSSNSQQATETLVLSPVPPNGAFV
Summary of the method: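 Cloned mouse urotensin (mUR2) receptor membranes from Perkin Elmer Biosignal were immobilized in FlashPlate microplates using a proprietary coating. Each well got 19.5 μl buffer, then 0.5 μl of DMSO, reference ligand, or compound. Adding 5 μl of [125I]-Urotensin II, diluted to 5× final concentration in binding buffer, started binding. Plates were sealed with TopSeal-A and incubated 1 hour at room temperature in the dark. Wells were counted for 30 seconds each on a TopCount after a 60-second delay, and percentage inhibition was calculated.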

Human δ-opioid (DOP) = biological target: T5, Human δ-opioid (DOP) (Homo sapiens, UniProt P41143); assay: Radioligand binding, human δ-opioid (DOP) membranes, FlashPlate, [3H]-Bremazocine; conditions: compound at 10 μM
T5 construct: purchased Perkin Elmer Biosignal
Summary of the method: as §1

Human Melanocortin (MC3) = biological target: T6, Human Melanocortin (MC3) (Homo sapiens, UniProt P41968); assay: Radioligand binding, human melanocortin MC3 membranes, FlashPlate, [125I]-NDP-αMSH; conditions: compound at 10 μM
T6 construct: purchased Perkin Elmer Biosignal
Summary of the method: as §1

Human opioid (ORL1) = biological target: T7, Human opioid (ORL1) (Homo sapiens, UniProt P41146); assay: Radioligand binding, human opioid ORL1 membranes, FlashPlate, [125I]-Nociceptin; conditions: compound at 10 μM, human ORL1 membranes
T7 construct: purchased Perkin Elmer Biosignal
Summary of the method: as §1

[1] = biological target: T8, Human melanin-concentrating hormone (MCH1) (Homo sapiens, UniProt Q99705); assay: Radioligand binding, human melanin-concentrating hormone MCH1 membranes, FlashPlate, [125I]-S36057; conditions: compound at 10 μM
T8 construct: purchased Perkin Elmer Biosignal
Summary of the method: as §1

Human Melanocortin (MC4) = biological target: T9, Human Melanocortin (MC4) (Homo sapiens, UniProt P32245); assay: Radioligand binding, human melanocortin MC4 membranes, FlashPlate, [125I]-NDP-αMSH; conditions: compound at 10 μM
T9 construct: purchased Perkin Elmer Biosignal
Summary of the method: as §1

[2] = biological target: T10, Human neuropeptide Y (NPY-Y1) (Homo sapiens, UniProt P25929); assay: Radioligand binding, human neuropeptide Y NPY-Y1 membranes, FlashPlate, [125I]-PYY; conditions: compound at 10 μM, human NPY-Y1 membranes
T10 construct: purchased Perkin Elmer Biosignal
T10 sequence (P25929 1-384): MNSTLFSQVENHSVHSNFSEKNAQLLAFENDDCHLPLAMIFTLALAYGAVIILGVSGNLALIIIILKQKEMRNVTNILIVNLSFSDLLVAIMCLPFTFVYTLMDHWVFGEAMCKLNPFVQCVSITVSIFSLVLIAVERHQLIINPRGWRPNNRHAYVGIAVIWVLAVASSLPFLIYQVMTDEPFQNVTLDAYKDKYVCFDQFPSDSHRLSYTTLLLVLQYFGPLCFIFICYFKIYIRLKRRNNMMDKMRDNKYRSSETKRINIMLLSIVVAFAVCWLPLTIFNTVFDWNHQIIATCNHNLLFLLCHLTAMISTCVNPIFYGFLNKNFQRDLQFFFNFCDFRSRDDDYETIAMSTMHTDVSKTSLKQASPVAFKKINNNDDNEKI
Summary of the method: as §1

Human neurokinin (NK1) = biological target: T11, Human neurokinin (NK1) (Homo sapiens, UniProt P25103); assay: Radioligand binding, human neurokinin NK1 membranes, filtration, [125I]-Substance P; conditions: compound at 10 μM
T11 construct: purchased Perkin Elmer Biosignal
Summary of the method: as §2

T8 sequence (Q99705 whole entry): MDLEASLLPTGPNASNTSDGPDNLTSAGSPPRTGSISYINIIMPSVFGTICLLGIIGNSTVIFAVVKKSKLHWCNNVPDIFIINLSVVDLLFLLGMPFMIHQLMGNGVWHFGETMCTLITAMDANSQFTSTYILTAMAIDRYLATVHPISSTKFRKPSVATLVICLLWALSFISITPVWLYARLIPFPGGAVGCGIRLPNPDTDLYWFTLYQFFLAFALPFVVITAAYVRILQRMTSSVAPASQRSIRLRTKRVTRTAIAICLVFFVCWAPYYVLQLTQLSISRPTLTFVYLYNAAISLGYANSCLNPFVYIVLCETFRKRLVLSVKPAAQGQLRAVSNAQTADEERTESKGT
T3 sequence (P41145 whole entry): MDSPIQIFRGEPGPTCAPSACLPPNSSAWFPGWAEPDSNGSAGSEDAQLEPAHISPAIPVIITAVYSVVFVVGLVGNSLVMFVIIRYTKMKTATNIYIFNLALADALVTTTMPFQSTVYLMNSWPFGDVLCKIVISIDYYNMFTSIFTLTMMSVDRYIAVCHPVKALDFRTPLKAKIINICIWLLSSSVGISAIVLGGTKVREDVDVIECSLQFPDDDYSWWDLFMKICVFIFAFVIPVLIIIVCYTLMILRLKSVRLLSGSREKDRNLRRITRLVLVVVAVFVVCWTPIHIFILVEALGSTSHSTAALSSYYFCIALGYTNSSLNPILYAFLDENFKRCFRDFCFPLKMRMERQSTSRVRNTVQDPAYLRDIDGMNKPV
T7 sequence (P41146 whole entry): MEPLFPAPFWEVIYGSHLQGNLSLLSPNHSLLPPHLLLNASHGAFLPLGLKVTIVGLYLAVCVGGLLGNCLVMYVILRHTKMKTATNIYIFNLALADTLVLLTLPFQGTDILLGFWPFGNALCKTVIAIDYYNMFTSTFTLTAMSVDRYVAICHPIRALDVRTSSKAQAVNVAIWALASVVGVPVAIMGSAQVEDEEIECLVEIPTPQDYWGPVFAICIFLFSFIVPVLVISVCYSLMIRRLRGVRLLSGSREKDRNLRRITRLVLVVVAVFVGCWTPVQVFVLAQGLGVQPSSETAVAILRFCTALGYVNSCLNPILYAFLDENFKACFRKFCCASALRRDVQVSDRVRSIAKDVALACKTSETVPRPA
T2 sequence (P33032 whole entry): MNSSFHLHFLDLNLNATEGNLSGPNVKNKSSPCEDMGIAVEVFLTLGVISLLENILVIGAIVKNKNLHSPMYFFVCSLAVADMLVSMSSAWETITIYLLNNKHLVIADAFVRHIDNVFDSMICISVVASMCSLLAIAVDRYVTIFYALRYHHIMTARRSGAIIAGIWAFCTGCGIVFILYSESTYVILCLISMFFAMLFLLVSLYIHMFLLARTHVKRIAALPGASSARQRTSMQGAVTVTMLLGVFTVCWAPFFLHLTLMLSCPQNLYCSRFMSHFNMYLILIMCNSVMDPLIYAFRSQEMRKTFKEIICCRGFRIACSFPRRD
T9 sequence (P32245 whole entry): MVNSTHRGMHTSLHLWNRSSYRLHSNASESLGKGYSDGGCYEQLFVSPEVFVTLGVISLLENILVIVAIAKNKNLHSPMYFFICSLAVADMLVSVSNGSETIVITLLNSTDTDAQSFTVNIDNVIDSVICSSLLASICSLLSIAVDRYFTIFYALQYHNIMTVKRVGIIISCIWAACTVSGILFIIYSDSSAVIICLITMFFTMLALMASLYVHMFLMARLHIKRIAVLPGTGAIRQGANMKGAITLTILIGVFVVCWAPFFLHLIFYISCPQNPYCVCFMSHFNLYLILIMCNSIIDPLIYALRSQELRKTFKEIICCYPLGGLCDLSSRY
T11 sequence (P25103 whole entry): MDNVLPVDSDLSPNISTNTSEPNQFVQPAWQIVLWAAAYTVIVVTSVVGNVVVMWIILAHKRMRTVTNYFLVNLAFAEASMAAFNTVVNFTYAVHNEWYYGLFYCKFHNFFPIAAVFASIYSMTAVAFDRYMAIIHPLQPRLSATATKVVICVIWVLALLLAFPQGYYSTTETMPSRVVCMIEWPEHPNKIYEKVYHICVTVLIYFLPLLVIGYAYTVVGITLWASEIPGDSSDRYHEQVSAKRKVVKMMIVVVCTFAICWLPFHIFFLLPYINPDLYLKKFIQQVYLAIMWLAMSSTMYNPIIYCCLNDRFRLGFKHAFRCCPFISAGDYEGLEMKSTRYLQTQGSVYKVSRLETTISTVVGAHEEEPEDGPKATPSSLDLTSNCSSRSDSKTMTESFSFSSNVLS
T5 sequence (P41143 whole entry): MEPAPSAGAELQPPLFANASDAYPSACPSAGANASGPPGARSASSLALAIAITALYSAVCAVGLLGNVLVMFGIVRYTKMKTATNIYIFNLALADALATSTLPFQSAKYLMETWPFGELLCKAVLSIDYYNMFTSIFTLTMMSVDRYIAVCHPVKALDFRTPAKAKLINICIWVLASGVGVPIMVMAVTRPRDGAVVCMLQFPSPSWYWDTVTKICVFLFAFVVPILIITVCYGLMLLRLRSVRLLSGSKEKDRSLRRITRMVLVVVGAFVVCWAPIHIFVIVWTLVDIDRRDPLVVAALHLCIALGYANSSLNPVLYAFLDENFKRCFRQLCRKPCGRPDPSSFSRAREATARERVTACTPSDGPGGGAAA
T6 sequence (P41968 whole entry): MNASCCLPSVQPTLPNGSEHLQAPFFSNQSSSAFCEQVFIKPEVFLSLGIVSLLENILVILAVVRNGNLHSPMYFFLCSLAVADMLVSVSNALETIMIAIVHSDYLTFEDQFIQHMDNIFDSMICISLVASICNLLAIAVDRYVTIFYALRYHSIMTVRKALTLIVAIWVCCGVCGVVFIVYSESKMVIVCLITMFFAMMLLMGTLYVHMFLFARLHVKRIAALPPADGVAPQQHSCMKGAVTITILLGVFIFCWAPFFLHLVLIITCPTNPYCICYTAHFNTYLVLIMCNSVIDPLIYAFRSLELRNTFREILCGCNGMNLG
T1 sequence (P35372 whole entry): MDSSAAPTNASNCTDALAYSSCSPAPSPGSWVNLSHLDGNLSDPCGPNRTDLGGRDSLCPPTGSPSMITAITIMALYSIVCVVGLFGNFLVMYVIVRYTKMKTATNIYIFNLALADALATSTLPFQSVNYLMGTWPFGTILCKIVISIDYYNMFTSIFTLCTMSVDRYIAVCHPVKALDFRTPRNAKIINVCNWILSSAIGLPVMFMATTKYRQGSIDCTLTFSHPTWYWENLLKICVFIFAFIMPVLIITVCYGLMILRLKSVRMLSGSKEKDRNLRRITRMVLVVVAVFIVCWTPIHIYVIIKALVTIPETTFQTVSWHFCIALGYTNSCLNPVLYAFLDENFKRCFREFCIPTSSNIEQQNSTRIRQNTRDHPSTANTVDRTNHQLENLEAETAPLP

CO[C@H]1[C@H](O)[C@@H](COCc2ccc(Cl)cc2)OC(OCc2ccc(-c3ccccc3)cc2)[C@@H]1NC(=O)CCCN (stereo partly shown) [compound 64]
A7 radioligand binding inhibition (Human μ-opioid (MOP); human μ-opioid (MOP) membranes): − (“−” indicates less than 50% inhibition at 10 μM) | A5 radioligand binding inhibition (Human melanocortin (MC5); human melanocortin MC5 membranes): + (“+” indicates greater than 50% inhibition at 10 μM) | A2 radioligand binding inhibition (Human κ-Opioid (KOP); human κ-opioid (KOP) membranes): − (“−” indicates less than 50% inhibition at 10 μM) | A11 radioligand binding inhibition (Mouse urotensin (mUR2); mouse urotensin mUR2 membranes): − (“−” indicates less than 50% inhibition at 10 μM) | A1 radioligand binding inhibition (Human δ-opioid (DOP); human δ-opioid (DOP) membranes): − (“−” indicates less than 50% inhibition at 10 μM) | A3 radioligand binding inhibition (Human Melanocortin (MC3); human melanocortin MC3 membranes): + (“+” indicates greater than 50% inhibition at 10 μM) | A10 radioligand binding inhibition (Human opioid (ORL1)): − (“−” indicates less than 50% inhibition at 10 μM) | A6 radioligand binding inhibition ([1]; human MCH1 membranes): − (“−” indicates less than 50% inhibition at 10 μM) | A4 radioligand binding inhibition (Human Melanocortin (MC4); human melanocortin MC4 membranes): − (“−” indicates less than 50% inhibition at 10 μM) | A9 radioligand binding inhibition [2]: − (“−” indicates less than 50% inhibition at 10 μM) | A8 radioligand binding inhibition (Human neurokinin (NK1); human neurokinin NK1 membranes): + (“+” indicates greater than 50% inhibition at 10 μM)

NCCC(=O)N[C@H]1C(OCc2ccc3ccccc3c2)O[C@H](COCc2ccccc2)[C@@H](O)[C@@H]1OCc1ccccc1 (stereo partly shown) [compound 450]
A7: inhibition of radioligand binding (Human μ-opioid (MOP); [3H]-Naloxone, human MOP membranes): − (“−” indicates less than 50% inhibition at 10 μM) | A5: inhibition of radioligand binding (Human melanocortin (MC5); [125I]-NDP-αMSH, human MC5 membranes): − (“−” indicates less than 50% inhibition at 10 μM) | A2: inhibition of radioligand binding (Human κ-Opioid (KOP); [3H]-Diprenorphine, human KOP membranes): − (“−” indicates less than 50% inhibition at 10 μM) | A11: inhibition of radioligand binding (Mouse urotensin (mUR2); [125I]-Urotensin II, mouse mUR2 membranes): − (“−” indicates less than 50% inhibition at 10 μM) | A1: inhibition of radioligand binding (Human δ-opioid (DOP); [3H]-Bremazocine, human DOP membranes): − (“−” indicates less than 50% inhibition at 10 μM) | A3: inhibition of radioligand binding (Human Melanocortin (MC3); [125I]-NDP-αMSH, human MC3 membranes): − (“−” indicates less than 50% inhibition at 10 μM) | A10: inhibition of radioligand binding (Human opioid (ORL1); [125I]-Nociceptin): − (“−” indicates less than 50% inhibition at 10 μM) | A6: inhibition of radioligand binding ([1]; [125I]-S36057, human MCH1 membranes): − (“−” indicates less than 50% inhibition at 10 μM) | A4: inhibition of radioligand binding (Human Melanocortin (MC4); [125I]-NDP-αMSH, human MC4 membranes): − (“−” indicates less than 50% inhibition at 10 μM) | A9: inhibition of radioligand binding ([2]; [125I]-PYY): − (“−” indicates less than 50% inhibition at 10 μM) | A8: inhibition of radioligand binding (Human neurokinin (NK1); [125I]-Substance P, human NK1 membranes): + (“+” indicates greater than 50% inhibition at 10 μM)
